In PubChem BioAssay AID2060889 (Molecular Pharmacology Branch, DTP, NCI, 2025):
One block for each molecule: values may come before it.

System: LG0567-F671-PDC complex spheroids viability
Assay: Anticancer human tumor LG0567-F671-PDC patient-derived lung adenocarcinoma cell line growth inhibition [RAS]
Conditions: for IC50: curve of first compound; for viability, T/C: stronger effect = lower value
Outline: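 Tumour cells grown as complex spheroids with HUVEC endothelial cells and mesenchymal stem cells, treated with RAS pathway inhibitor combinations. Each agent spans half-log steps from near clinical Cmax, or 10 microM where Cmax is unknown.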

[1] = second compound 0.000949 µM, first compound 0.0316 µM
[2] = second compound 0.000949 µM, first compound 0.1 µM
[3] = second compound 0.000949 µM, first compound 0.316 µM
[4] = second compound 0.000949 µM, first compound 1 µM
[5] = second compound 0.003 µM, first compound 0.0316 µM
[6] = second compound 0.003 µM, first compound 0.1 µM
[7] = second compound 0.003 µM, first compound 0.316 µM
[8] = second compound 0.003 µM, first compound 1 µM
[9] = second compound 0.00949 µM, first compound 0.0316 µM
[10] = second compound 0.00949 µM, first compound 0.1 µM
[11] = second compound 0.00949 µM, first compound 0.316 µM
[12] = second compound 0.00949 µM, first compound 1 µM
[13] = second compound 0.03 µM, first compound 0.0316 µM
[14] = second compound 0.03 µM, first compound 0.1 µM
[15] = second compound 0.03 µM, first compound 0.316 µM
[16] = second compound 0.03 µM, first compound 1 µM
[17] = second compound 0.0949 µM, first compound 0.0316 µM
[18] = second compound 0.0949 µM, first compound 0.1 µM
[19] = second compound 0.0949 µM, first compound 0.316 µM
[20] = second compound 0.0949 µM, first compound 1 µM
[21] = second compound 0.3 µM, first compound 0.0316 µM
[22] = second compound 0.3 µM, first compound 0.1 µM
[23] = second compound 0.3 µM, first compound 0.316 µM
[24] = second compound 0.3 µM, first compound 1 µM
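Note: spheroids exposed to compound for seven days before readout.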
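Throughout, for IC50: luminescence signal used as a proxy for viable cells.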

IC50 (second compound 0.000949 µM): < 31.6 nM
IC50 (second compound 0.003 µM): < 31.6 nM
IC50 (second compound 0.00949 µM): < 31.6 nM
IC50 (second compound 0.03 µM): < 31.6 nM
IC50 (second compound 0.0949 µM): < 31.6 nM
IC50 (second compound 0.3 µM): < 31.6 nM
Compound: NC1c2ccccc2OC12CCN(c1cnc3c(N4CCCc5ncccc54)n[nH]c3n1)CC2 (centres undefined) + CCn1c(-c2cccnc2C(C)OC)c2c3cc(ccc31)N1CCOC(CC(NC(=O)C(C(C)C)N(C)C(=O)C3(F)CCN(C(=O)C#CC(C)(C)N(C)C)CC3)C(=O)N3CCCC(N3)C(=O)OCC(C)(C)C2)C1
viability, T/C [1]: 4.75%
viability, T/C [2]: 4.54%
viability, T/C [3]: 2.82%
viability, T/C [4]: 2.6%
viability, T/C (second compound 0.000949 µM, first compound 3.16 µM): 3.24%
viability, T/C (second compound 0.000949 µM, first compound 10 µM): 2.18%
viability, T/C [5]: 5.7%
viability, T/C [6]: 4.2%
viability, T/C [7]: 3.08%
viability, T/C [8]: 2.79%
viability, T/C (second compound 0.003 µM, first compound 3.16 µM): 2.89%
viability, T/C (second compound 0.003 µM, first compound 10 µM): 3%
viability, T/C [9]: 6.21%
viability, T/C [10]: 3.69%
viability, T/C [11]: 3.15%
viability, T/C [12]: 2.2%
viability, T/C (second compound 0.00949 µM, first compound 3.16 µM): 1.99%
viability, T/C (second compound 0.00949 µM, first compound 10 µM): 1.74%
viability, T/C [13]: 4.82%
viability, T/C [14]: 4.27%
viability, T/C [15]: 2.5%
viability, T/C [16]: 1.95%
viability, T/C (second compound 0.03 µM, first compound 3.16 µM): 1.88%
viability, T/C (second compound 0.03 µM, first compound 10 µM): 2.47%
viability, T/C [17]: 4.25%
viability, T/C [18]: 3.02%
viability, T/C [19]: 2.73%
viability, T/C [20]: 1.84%
viability, T/C (second compound 0.0949 µM, first compound 3.16 µM): 1.66%
viability, T/C (second compound 0.0949 µM, first compound 10 µM): 1.44%
viability, T/C [21]: 3.31%
viability, T/C [22]: 2.55%
viability, T/C [23]: 1.71%
viability, T/C [24]: 1.65%
viability, T/C (second compound 0.3 µM, first compound 3.16 µM): 1.27%
viability, T/C (second compound 0.3 µM, first compound 10 µM): 2.62%

IC50 (second compound 0.000949 µM): < 3.16 nM
IC50 (second compound 0.003 µM): < 3.16 nM
IC50 (second compound 0.00949 µM): < 3.16 nM
IC50 (second compound 0.03 µM): < 3.16 nM
IC50 (second compound 0.0949 µM): < 3.16 nM
IC50 (second compound 0.3 µM): < 3.16 nM
Compound: C=CC(=O)Nc1cc(Nc2nccc(-c3cn(C)c4ccccc34)n2)c(OC)cc1N(C)CCN(C)C + CCn1c(-c2cccnc2C(C)OC)c2c3cc(ccc31)N1CCOC(CC(NC(=O)C(C(C)C)N(C)C(=O)C3(F)CCN(C(=O)C#CC(C)(C)N(C)C)CC3)C(=O)N3CCCC(N3)C(=O)OCC(C)(C)C2)C1
viability, T/C (second compound 0.000949 µM, first compound 0.00316 µM): 15.6%
viability, T/C (second compound 0.000949 µM, first compound 0.01 µM): 14%
viability, T/C [1]: 12.5%
viability, T/C [2]: 9.48%
viability, T/C [3]: 14.1%
viability, T/C [4]: 3.07%
viability, T/C (second compound 0.003 µM, first compound 0.00316 µM): 13.4%
viability, T/C (second compound 0.003 µM, first compound 0.01 µM): 13.9%
viability, T/C [5]: 13%
viability, T/C [6]: 9.78%
viability, T/C [7]: 6.6%
viability, T/C [8]: 2.75%
viability, T/C (second compound 0.00949 µM, first compound 0.00316 µM): 20%
viability, T/C (second compound 0.00949 µM, first compound 0.01 µM): 12.7%
viability, T/C [9]: 11.6%
viability, T/C [10]: 9.64%
viability, T/C [11]: 6.15%
viability, T/C [12]: 7.2%
viability, T/C (second compound 0.03 µM, first compound 0.00316 µM): 12%
viability, T/C (second compound 0.03 µM, first compound 0.01 µM): 11.5%
viability, T/C [13]: 11.2%
viability, T/C [14]: 7.87%
viability, T/C [15]: 5.56%
viability, T/C [16]: 3.05%
viability, T/C (second compound 0.0949 µM, first compound 0.00316 µM): 10.1%
viability, T/C (second compound 0.0949 µM, first compound 0.01 µM): 10.9%
viability, T/C [17]: 10.2%
viability, T/C [18]: 9.54%
viability, T/C [19]: 5.79%
viability, T/C [20]: 2.57%
viability, T/C (second compound 0.3 µM, first compound 0.00316 µM): 12.4%
viability, T/C (second compound 0.3 µM, first compound 0.01 µM): 7.87%
viability, T/C [21]: 7.46%
viability, T/C [22]: 5.58%
viability, T/C [23]: 3.92%
viability, T/C [24]: 2.38%
